Earlier results on 1 compound are cited in patent publication US20040259844A1 (priority 2000, published 2004).

The structures appear in SMILES notation.

The series has as its system retinal ganglion cells.

On to `CN1[C@@H]2CC[C@H]1C[C@@H](OC(=O)C(CO)c1ccccc1)C2` (stereo partly shown) [atropine], for which the “effect on veratridine-increased survival of retinal ganglion cells” value is reported as “blocked”.
